Several values for one entry are separate records, joined by “and”; a condition that tells them apart may be missing. Equal entries are not always repeated. Toxic doses and inconclusive results are not listed.
System: BDF1 mice, P388 leukemia ip, median survival T/C
Experiment: NCI In Vivo Anticancer Drug Screen. Data for tumor model P388 Leukemia (intraperitoneal) in B6D2F1 (BDF1) mice
Conditions: endpoint: median survival time, higher = longer survival
Outline: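 In tumour-bearing mice, survival after compound treatment is set against the vehicle group and given as a quotient.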

[1] = dose: 100.0 mg/kg/injection, schedule: Q04DX003 (ip), vehicle: saline with Tween-80
[2] = dose: 200.0 mg/kg/injection, schedule: Q04DX003 (ip), vehicle: saline with Tween-80
[3] = dose: 50.0 mg/kg/injection, schedule: Q01DX009 (ip), vehicle: saline
[4] = dose: 100.0 mg/kg/injection, schedule: Q01DX009 (ip), vehicle: saline
[5] = dose: 400.0 mg/kg/injection, schedule: Q04DX003 (ip), vehicle: saline with Tween-80
[6] = dose: 200.0 mg/kg/injection, schedule: Q01DX009 (ip), vehicle: saline
[7] = dose: 100.0 mg/kg/injection, schedule: Q01DX009 (ip), vehicle: saline with Tween-80
[8] = dose: 100.0 mg/kg/injection, schedule: Q01DX001 (ip), vehicle: Klucel (hydroxypropylcellulose) (HPC)
[9] = dose: 25.0 mg/kg/injection, schedule: Q01DX009 (ip), vehicle: saline with Tween-80
[10] = dose: 50.0 mg/kg/injection, schedule: Q01DX009 (ip), vehicle: saline with Tween-80
[11] = dose: 200.0 mg/kg/injection, schedule: Q01DX009 (ip), vehicle: saline with Tween-80
[12] = dose: 100.0 mg/kg/injection, schedule: Q04DX003 (ip), vehicle: saline
[13] = dose: 200.0 mg/kg/injection, schedule: Q04DX003 (ip), vehicle: saline

SMILES: Cc1ccc(C)c(CCO)c1
- T/C (dose: 45.0 mg/kg/injection, schedule: Q01DX009 (ip), vehicle: other): 105 % of control
- T/C (dose: 50.0 mg/kg/injection, schedule: Q01DX009 (ip), vehicle: Klucel (hydroxypropylcellulose) (HPC)): 108 % of control
- T/C (dose: 65.0 mg/kg/injection, schedule: Q01DX009 (ip), vehicle: other): 100 % of control
- T/C (dose: 100.0 mg/kg/injection, schedule: Q01DX009 (ip), vehicle: Klucel (hydroxypropylcellulose) (HPC)): 100 % of control
- T/C (dose: 100.0 mg/kg/injection, schedule: Q01DX009 (ip), vehicle: other): 100 % of control
- T/C [1]: 109 % of control
- T/C (dose: 150.0 mg/kg/injection, schedule: Q01DX009 (ip), vehicle: other): 105 % of control
- T/C (dose: 200.0 mg/kg/injection, schedule: Q01DX009 (ip), vehicle: Klucel (hydroxypropylcellulose) (HPC)): 112 % of control
- T/C (dose: 200.0 mg/kg/injection, schedule: Q01DX009 (ip), vehicle: other): 104 % of control and 120 % of control
- T/C [2]: 109 % of control

SMILES: CC1=CC(OC2CCCCO2)C2CC1C2(C)C (stereo unspecified)
- T/C (dose: 100.0 mg/kg/injection, schedule: Q04DX003 (ip), vehicle: Klucel (hydroxypropylcellulose) (HPC)): 112 % of control
- T/C (dose: 200.0 mg/kg/injection, schedule: Q04DX003 (ip), vehicle: Klucel (hydroxypropylcellulose) (HPC)): 112 % of control
- T/C (dose: 400.0 mg/kg/injection, schedule: Q04DX003 (ip), vehicle: Klucel (hydroxypropylcellulose) (HPC)): 104 % of control

SMILES: CCOC(=O)Cc1csc(NN=C(C)C)n1
- T/C [3]: 108 % of control
- T/C [4]: 110 % of control

SMILES: C=C(C(N)=O)c1cc(Cl)ccc1Cl
- T/C (dose: 100.0 mg/kg/injection, schedule: Q01DX009 (ip), vehicle: water): 110 % of control
- T/C [1]: 100 % of control
- T/C (dose: 200.0 mg/kg/injection, schedule: Q01DX009 (ip), vehicle: water): 100 % of control
- T/C [2]: 95 % of control
- T/C (dose: 400.0 mg/kg/injection, schedule: Q01DX009 (ip), vehicle: water): 100 % of control
- T/C [5]: 95 % of control

SMILES: O=C(c1ccccc1)c1cc[n+]([O-])cc1
- T/C (dose: 75.0 mg/kg/injection, schedule: Q01DX001 (ip), vehicle: saline sonified): 91 % of control
- T/C (dose: 150.0 mg/kg/injection, schedule: Q01DX001 (ip), vehicle: saline sonified): 91 % of control

SMILES: CC1COB(c2ccccc2)OCC(C)N1CNC(=O)C1=C(O)C2(O)C(O)=C3C(=O)C4C(O)=CC=CC4C(C)(O)C3CC2C(N(C)C)C1=O (stereo unspecified)
- T/C [3]: 109 % of control
- T/C [4]: 98 % of control
- T/C [6]: 111 % of control

SMILES: CC(C)n1cnc2c(=S)nc[nH]c21
- T/C [7]: 91 % of control
- T/C [1]: 100 % of control
- T/C [2]: 104 % of control
- T/C [5]: 113 % of control

SMILES: S=c1[nH]nc(NC2CCCCC2)s1
- T/C (dose: 25.0 mg/kg/injection, schedule: Q01DX001 (ip), vehicle: Klucel (hydroxypropylcellulose) (HPC)): 100 % of control
- T/C (dose: 50.0 mg/kg/injection, schedule: Q01DX001 (ip), vehicle: Klucel (hydroxypropylcellulose) (HPC)): 112 % of control
- T/C [8]: 87 % of control

SMILES: CC(C)[C@]12O[C@H]1[C@@H]1O[C@]13[C@]1(O[C@H]1C[C@H]1C4=C(C(=O)OC4)[C@@H](O)C[C@@]13C)[C@@H]2O
- T/C (dose: 0.03 mg/kg/injection, schedule: Q01DX009 (ip), vehicle: saline + alcohol): 100 % of control and 106 % of control
- T/C (dose: 0.06 mg/kg/injection, schedule: Q01DX009 (ip), vehicle: saline + alcohol): 113 % of control and 117 % of control
- T/C (dose: 0.13 mg/kg/injection, schedule: Q01DX009 (ip), vehicle: saline + alcohol): 120 % of control
- T/C (dose: 0.25 mg/kg/injection, schedule: Q01DX009 (ip), vehicle: saline + alcohol): 150 % of control
- T/C (dose: 3.8 micrograms/kg/injection, schedule: Q01DX009 (ip), vehicle: saline): 104 % of control
- T/C (dose: 6.5 micrograms/kg/injection, schedule: Q01DX009 (ip), vehicle: saline): 104 % of control
- T/C (dose: 13.0 micrograms/kg/injection, schedule: Q01DX009 (ip), vehicle: saline): 95 % of control
- T/C (dose: 25.0 micrograms/kg/injection, schedule: Q01DX009 (ip), vehicle: saline): 109 % of control
- T/C (dose: 100.0 micrograms/kg/injection, schedule: Q01DX009 (ip), vehicle: saline + alcohol): 90 % of control

SMILES: CNC(=S)/N=C(\N)n1nc(C)cc1C
- T/C (dose: 15.0 mg/kg/injection, schedule: Q01DX009 (ip), vehicle: saline with Tween-80): 104 % of control
- T/C (dose: 30.0 mg/kg/injection, schedule: Q01DX009 (ip), vehicle: saline with Tween-80): 112 % of control
- T/C (dose: 60.0 mg/kg/injection, schedule: Q01DX009 (ip), vehicle: saline with Tween-80): 112 % of control

SMILES: CCSc1ncnc2[nH]ncc12
- T/C (dose: 6.25 mg/kg/injection, schedule: Q01DX009 (ip), vehicle: saline + alcohol): 101 % of control
- T/C (dose: 12.5 mg/kg/injection, schedule: Q01DX009 (ip), vehicle: saline + alcohol): 100 % of control
- T/C (dose: 25.0 mg/kg/injection, schedule: Q01DX009 (ip), vehicle: saline + alcohol): 100 % of control
- T/C (dose: 50.0 mg/kg/injection, schedule: Q01DX009 (ip), vehicle: saline + alcohol): 98 % of control

SMILES: CCc1nnc2ncccn12
- T/C [3]: 97 % of control and 102 % of control and 104 % of control
- T/C [4]: 104 % of control and 107 % of control
- T/C [6]: 91 % of control and 100 % of control

SMILES: COc1nc(Cl)nc(OC)n1
- T/C [9]: 96 % of control
- T/C [10]: 97 % of control
- T/C [7]: 99 % of control
- T/C [11]: 99 % of control

SMILES: c1ccc(CCNCc2ccccc2)cc1
- T/C [9]: 100 % of control
- T/C [10]: 100 % of control
- T/C [7]: 100 % of control

SMILES: Cc1cc(=O)cc(C)n1C
- T/C [7]: 104 % of control
- T/C [11]: 100 % of control
- T/C (dose: 400.0 mg/kg/injection, schedule: Q01DX009 (ip), vehicle: saline with Tween-80): 100 % of control

SMILES: Oc1ccc(CNCCNCCNCc2ccc(O)cc2)cc1
- T/C (dose: 12.5 mg/kg/injection, schedule: Q04DX003 (ip), vehicle: saline): 100 % of control
- T/C (dose: 25.0 mg/kg/injection, schedule: Q04DX003 (ip), vehicle: saline): 107 % of control
- T/C (dose: 50.0 mg/kg/injection, schedule: Q04DX003 (ip), vehicle: saline): 109 % of control
- T/C [12]: 100 % of control
- T/C [13]: 105 % of control

SMILES: O=C(O)CCc1ccccc1
- T/C (dose: 75.0 mg/kg/injection, schedule: Q01DX009 (ip), vehicle: saline with Tween-80): 95 % of control
- T/C [8]: 104 % of control
- T/C (dose: 150.0 mg/kg/injection, schedule: Q01DX009 (ip), vehicle: saline with Tween-80): 109 % of control
- T/C (dose: 200.0 mg/kg/injection, schedule: Q01DX001 (ip), vehicle: Klucel (hydroxypropylcellulose) (HPC)): 100 % of control
- T/C (dose: 300.0 mg/kg/injection, schedule: Q01DX009 (ip), vehicle: saline with Tween-80): 100 % of control
- T/C (dose: 400.0 mg/kg/injection, schedule: Q01DX001 (ip), vehicle: Klucel (hydroxypropylcellulose) (HPC)): 100 % of control

SMILES: C=CC[N+](CC=C)(CC=C)CCC[N+](CC=C)(CC=C)CC=C
- T/C (dose: 25.0 mg/kg/injection, schedule: Q04DX003 (ip), vehicle: water): 107 % of control
- T/C (dose: 50.0 mg/kg/injection, schedule: Q04DX003 (ip), vehicle: water): 88 % of control

SMILES: CC1OC2CC(=O)OC2C2=C1C(=O)c1c(O)c3c(c(O)c1C2=O)C1CC(O)C3(O)C(C)O1 (stereo unspecified)
- T/C (dose: 2.5 mg/kg/injection, schedule: Q01DX010 (ip), vehicle: saline): 115 % of control
- T/C (dose: 5.0 mg/kg/injection, schedule: Q01DX010 (ip), vehicle: saline): 115 % of control
- T/C (dose: 10.0 mg/kg/injection, schedule: Q01DX010 (ip), vehicle: saline): 115 % of control

SMILES: CC(O)C#N (stereo unspecified)
- T/C (dose: 1.25 mg/kg/injection, schedule: Q01DX009 (ip), vehicle: saline): 108 % of control
- T/C (dose: 2.5 mg/kg/injection, schedule: Q01DX009 (ip), vehicle: saline): 101 % of control
- T/C (dose: 5.0 mg/kg/injection, schedule: Q01DX009 (ip), vehicle: saline): 101 % of control

SMILES: CC(C)(C)CC(C)(C)c1ccc(OCCOS(=O)(=O)c2cccc([N+](=O)[O-])c2)cc1
- T/C [10]: 109 % of control
- T/C [7]: 95 % of control
- T/C [11]: 118 % of control

SMILES: CC(O)C(C)(C)CO (stereo unspecified)
- T/C [12]: 100 % of control
- T/C [13]: 100 % of control
- T/C (dose: 400.0 mg/kg/injection, schedule: Q04DX003 (ip), vehicle: saline): 100 % of control

SMILES: O=C1CCCCC1Oc1ccccc1 (stereo unspecified)
- T/C [7]: 95 % of control
- T/C [1]: 95 % of control
- T/C [11]: 91 % of control
- T/C [2]: 100 % of control
- T/C [5]: 100 % of control

SMILES: Nc1ncnc2[nH]c(=O)[nH]c12
- T/C (dose: 12.5 mg/kg/injection, schedule: Q01DX009 (ip), vehicle: saline with Tween-80): 104 % of control
- T/C [9]: 109 % of control
- T/C [2]: 104 % of control
- T/C [5]: 114 % of control

Source: PubChem BioAssay AID328 (DTP/NCI, 2004)
